Data from patent publication US20100324829A1, “METHOD OF SELECTING HLA-DP4 LIGANDS AND THE APPLICATIONS THEREOF” (priority 2001, published 2010).
Where a chain is given by its changes, count along the chain named.

Tests used:
[1] = biological target: T1, HLA-DP4 molecule DPA1*0103/DPB1*0401 (DP401) (Homo sapiens, UniProt P04440+P20036); experiment: biochemical; type: binding
T1 construct: purified from various human B lymphocyte lines transformed with the Epstein Barr virus (EBV), which are homozygotes for DP; endogenous in cells
T1 sequence (P20036 29-260): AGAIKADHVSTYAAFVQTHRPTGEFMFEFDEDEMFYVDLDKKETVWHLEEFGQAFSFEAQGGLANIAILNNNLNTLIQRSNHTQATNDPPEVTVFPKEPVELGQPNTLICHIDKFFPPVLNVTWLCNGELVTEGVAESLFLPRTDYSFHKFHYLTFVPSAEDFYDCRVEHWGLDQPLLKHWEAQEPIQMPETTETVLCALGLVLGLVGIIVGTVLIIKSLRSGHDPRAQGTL
T1 sequence (P04440 30-258): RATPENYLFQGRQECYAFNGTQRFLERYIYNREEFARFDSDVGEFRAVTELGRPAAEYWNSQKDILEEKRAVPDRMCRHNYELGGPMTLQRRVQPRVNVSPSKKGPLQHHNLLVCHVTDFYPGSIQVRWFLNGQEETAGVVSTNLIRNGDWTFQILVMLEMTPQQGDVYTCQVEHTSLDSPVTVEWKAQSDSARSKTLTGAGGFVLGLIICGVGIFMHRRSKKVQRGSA

[2] = biological target: T2, HLA-DP4 molecule DPA1*0103/DPB1*0402 (DP402) (Homo sapiens, UniProt P04440+P20036); experiment: biochemical; type: binding
T2 construct: purified from various human B lymphocyte lines transformed with the Epstein Barr virus (EBV), which are homozygotes for DP; endogenous in cells
T2 sequence (P20036 29-260): T1 sequence (P20036 29-260)
T2 sequence (P04440 30-258 A65V/A84D/A85E): T1 sequence (P04440 30-258) with A36V, A55D, A56E

Row | Molecule | Loss of binding to DP*0401 (ratio of the IC50 values for the mutant peptide and for the UNK1 peptide) [1] | Loss of binding to DP*0402 (ratio of the IC50 values for the mutant peptide and for the UNK1 peptide) [2] | IC50 ([1]; IC50 (nM) DP0401, Api m1 overlapping peptides, tracer bUNK 1-17 10 nM, pH 5, 24 h)
1 | KYFAATQFEPEAA [UNK L13E] | 11 | 8 | 
2 | KYFAATQFKPLAA [UNK E11K] | 1.3 | 0.7 | 
3 | KYFAATQEEPLAA [UNK F10E] | 1405 | 1190 | 
4 | KYFAATQTEPLAA [UNK F10T] | 1171 | 476 | 
5 | KYFAATAFEPLAA [UNK Q9A] | 0.8 | 0.6 | 
6 | KYFAATKFEPLAA [UNK Q9K] | 1.6 | 0.9 | 
7 | AYFAATQFEPLAA [UNK K3A] | 0.9 | 1 | 
8 | KYFAATQYEPLAA [UNK F10Y] | 2.4 | 3.4 | 
9 | KYFAATQFEPLAK [UNK A15K] | 1.7 | 1.4 | 
10 | KKFAATQFEPLAA [UNK Y4K] | 1.2 | 1 | 
11 | KYFAATQNEPLAA [UNK F10N] | 2460 | 1809 | 
12 | KYFAATQFEPAAA [UNK L13A] | 3.1 | 2.3 | 
13 | KYFAATQFEPYAA [UNK L13Y] | 2 | 15 | 
14 | KYFAKTQFEPLAA [UNK A7K] | 2 | 1.2 | 
15 | KYAAATQFEPLAA [UNK F5A] | 41 | 5.7 | 
16 | KYKAATQFEPLAA [UNK F5K] | 569 | 297 | 
17 | KYFAAFQFEPLAA [UNK T8F] | 2.7 | 1.7 | 
18 | KYYAATQFEPLAA [UNK F5Y] | 3 | 3.9 | 
19 | CC[C@H](C)[C@H](NC(=O)[C@H](CC(C)C)NC(=O)[C@H](CC(N)=O)NC(=O)[C@H](Cc1ccccc1)NC(=O)[C@H](Cc1ccc(O)cc1)NC(=O)[C@H](CCSC)NC(=O)[C@H](CCCCN)NC(=O)CNC(=O)[C@@H](NC(=O)[C@H](Cc1ccccc1)NC(=O)[C@@H](N)Cc1ccc(O)cc1)C(C)C)C(=O)N[C@@H](CC(=O)O)C(=O)N[C@H](C(=O)N[C@@H](CCCCN)C(=O)N[C@@H](CS)C(=O)N[C@@H](Cc1ccc(O)cc1)C(=O)N[C@@H](CCCCN)C(=O)N[C@@H](CC(C)C)C(=O)O)[C@@H](C)O [81-98] |  |  | 2250 nM
20 | KYFAATQFEPRAA [UNK L13R] | 64 | 43 | 
21 | KYFAALQFEPLAA [UNK T8L] | 1.9 | 2.6 | 
22 | KYFAATQAEPLAA [UNK F10A] | 336 | 62 | 
23 | KYFAATQFEPLKA [UNK A13K] | 1.7 | 1.4 | 
24 | KYFAAKQFEPLAA [UNK T8K] | 31 | 3.6 | 

Row | Molecule | Loss of binding to DP*0401 (ratio of the IC50 values for the mutant peptide and for the UNK1 peptide) [1] | Loss of binding to DP*0402 (ratio of the IC50 values for the mutant peptide and for the UNK1 peptide) [2] | IC50 ([1]; IC50 (nM) DP0401, Api m1 overlapping peptides, tracer bUNK 1-17 10 nM, pH 5, 24 h)
25 | KYNAATQFEPLAA [UNK F5N] | 398 | 76 | 
26 | KYFAATQFEPVAA [UNK L13V] | 2.5 | 1.9 | 
27 | KYFAARQFEPLAA [UNK T8R] | 17 | 6.7 | 
28 | KYFAATQFEKLAA [UNK P12K] | 1.8 | 1.4 | 
29 | KYTAATQFEPLAA [UNK F5T] | 234 | 126 | 
30 | KYFAATQFEPKAA [UNK L13K] | 81 | 70 | 
31 | KYFAATQFEALAA [UNK P12A] | 1.2 | 0.9 | 
32 | KYFAATQFAPLAA [UNK E11A] | 0.5 | 0.5 | 
33 | KAFAATQFEPLAA [UNK Y4A] | 1.2 | 0.9 | 
34 | KYFAATQFEPFAA [UNK L13F] | 1.7 | 4 | 
35 | KYFKATQFEPLAA [UNK A6K] | 1.6 | 1 | 
36 | KYFAATQLEPLAA [UNK F10L] | 7.2 | 6.7 | 
37 | KYFAATQKEPLAA [UNK F10K] | 420 | 350 | 
38 | KYFAAAQFEPLAA [UNK T8A] | 0.8 | 0.8 | 
39 | KYFAATQFEPNAA [UNK L13N] | 17 | 10 | 
40 | KYFAAEQFEPLAA [UNK T8E] | 2.7 | 3.7 | 
41 | KYFAASQFEPLAA [UNK T8S] | 2.7 | 3.4 | 
42 | KYFAANQFEPLAA [UNK T8N] | 4.1 | 4.8 | 
43 | KYEAATQFEPLAA [UNK F5E] | 117 | 123 | 
44 | KYFAATQFEPDAA [UNK L13D] | 9.4 | 9 | 
45 | KYLAATQFEPLAA [UNK F5L] | 3.6 | 6 | 
46 | KYFAADQFEPLAA [UNK T8D] | 2 | 2.3 | 
47 | KYFAAYQFEPLAA [UNK T8Y] | 4.1 | 2.4 | 
